According to patent US20110021440A1, “APOPTOTIC PATHWAY TARGETING FOR THE DIAGNOSIS AND TREATMENT OF CANCER” (UNIVERSITY OF MARYLAND, BALTIMORE, priority 2007, published 2011):
“Also recorded” adds a separate entry of the source. Peptide text beside a SMILES is read from it. * marks the point of attachment. Cbz = O=C(OCc1ccccc1)*

Key:
Bik protein [1] = assay: Western blotting of Bik protein in MCF10A cells; type: cell-based, human; settings: 24 h
Description: (§1) FIG. 1A relates to human mammary epithelial cells (MCF10A) grown for 24 h in the presence or absence of a proteasomal inhibitor (MG132, 5 μM). […] Lysates from Ramos cells are included as a positive control for Bik and parallel blotting for β-actin confirm equivalent levels of protein. FIG. 1B relates to Bik protein increases after forced cell rounding with the actin polymerization inhibitor, Latrunculin-A (LA, 5 μM for 24 h). Bik protein is low in standard growth media (GROW). […] Cell rounding may therefore act selectively to upregulate Bik rather than through a nonspecific apoptotic signal.
(§2) FIG. 6 illustrates Bik protein is degraded by the proteasome but remains reduced in tumor cell lines. Protein lysates from control cells (Ramos), nontumorigenic human mammary epithelial cells (MCF10A) or 11 human breast tumor cell lines were immunoblotted for Bik and b-actin as a loading control. […] Bik protein remained low in the tumor cell lines, even in the presence of MG132.
(§3) FIG. 7 illustrates tumor lines with reduced Bik resist apoptosis by cytoskeletal disruption.
(§4) Bik values were normalized to amplification of GAPDH, which was highly consistent in all cell lines and dissociation curves confirmed specificity with a single major amplification product in each reaction type (FIG. 5B). Despite the detectable levels of mRNA, Bik protein levels were very low in the tumor lines and MCF10A cells under normal growth conditions. Since Bik can be degraded by the proteasome (Zhu et al., Oncogene, 24:4993-4999 (2005)), cells were treated with MG132 to inhibit the proteasome and increase detectable Bik levels (FIG. 6). […] Downregulation of Bik in MDA-MB-453 cells therefore occurs independently from mRNA expression. However, loss of Bik function as a common event in breast tumors continues to be supported by these finding.
(§5) Several apoptotic stimuli were tested for their ability to induce Bik expression in MCF10A cells were evaluated (FIG. 7A). Compared to a Ramos positive control lysate, MCF10A cells express very low levels of Bik under normal growth conditions. […] Bik expression in MCF10A cells increased after treatment with Latrunculin-A (LA), an inhibitor of the actin cytoskeleton that causes cell rounding (Martin et al., Mol. Cell. Biol., 21:6529-6536 (2001)). Apoptosis caused by cell rounding and cytoskeletal disruption has been termed amorphosis (Martin et al., Biochim. Biophys. Acta., 1692:145-157 (2004)), and resistance to amorphosis is thought to contribute to metastatic potential by allowing tumor cells to tolerate the cell shape changes that occur during bloodborne dissemination (Martin et al., Oncogene, 23:4641-4645 (2004); Mehlen et al., Nat. Rev. Cancer, 6:449-458 (2006); Pinkas et al., Mol. Cancer. Res., 2:551-556 (2004)). […] Since Bik is induced by cell rounding, its loss in tumors may reduce their apoptotic sensitivity and yield a greater metastatic potential. In fact, reduced expression of Bik predicts increased nodal involvement in colorectal cancer (Bandres et al., Oncol. Rep., 12:287-292 (2004)). Conversely, forced expression of Bik inhibits systemic breast tumor growth (Zou et al., Cancer Res., 62:8-12 (2002)).

MCF10A cells [2] = assay: Apoptosis / cell death in MCF10A cells (PARP cleavage); type: cell-based, human; settings: for cell death: 24 h, TRAIL 1 μg/mL, CHX 30 μg/mL, DOX 3 μg/mL, not shown; for apoptosis as assessed by PARP cleavage: 24 hours
Description: as §1, §5

Bik protein [3] = assay: Western blotting of Bik protein in MCF10A cells stably expressing Bcl-2; type: cell-based, human; settings: forced cell rounding, LA 5 μM, 24 h
Description: (§6) MCF10A or MCF-7 cells show comparably low levels of Bik. […] This increase in Bik is so strong that the moderate increases observed with LA in MCF10A cells (FIG. 7B) cannot even be detected here due to the short exposure times necessary to prevent oversaturating signal.
as §6, with “FIG. 15 illustrates apoptotically-resistant cell accumulate high” for “MCF10A or MCF-7 cells show comparably low”, “Bik when rounded.” for “Bik.”, “7A)” for “7B)”

Bik protein [4] = assay: Western blotting of Bik protein in MCF10A cells stably expressing Bcl-xL; type: cell-based, human; settings: forced cell rounding, LA 5 μM, 24 h
Description: as §6
as §6, with “FIG. 15 illustrates apoptotically-resistant cell accumulate high” for “MCF10A or MCF-7 cells show comparably low”, “Bik when rounded.” for “Bik.”, “7A)” for “7B)”

BCRP protein [5] = assay: Western blotting of BCRP in MCF10A cells; type: cell-based, human; settings: LA 5 μM, 24 h, rounded
Description: (§7) FIG. 12 illustrates cell rounding also upregulates the BCRP drug resistance protein. […] MCF10A mammary epithelial cells or MCF-7 and Bt-474 breast tumor cells were grown for 24 h in standard media (Control), serum-free conditions (DMEM) or forced cell rounding through inhibition of actin polymerization with Latrunculin-A (LA, 5 μM—Rounded). […] Levels of actin remain constant.

BCRP protein [6] = assay: Western blotting of BCRP in MCF-7 cells; type: cell-based, human; settings: LA 5 μM, 24 h, rounded
Description: as §7

BCRP protein [7] = assay: Western blotting of BCRP in Bt-474 cells; type: cell-based, human; settings: LA 5 μM, 24 h, rounded
Description: as §7

MCF10A cells [8] = type: cell-based
Description: as §3
(§8) FIG. 13 illustrates cells expressing the survival proteins Bcl-2 or Bcl-xL are highly resistant to cell death induced by cell rounding (LA). […] Nearly 60% of cells overexpressing Bcl-xL remain viable even at concentrations of LA as high as 20 μM. […] Viability was measured with XTT and each point represents the mean+/−S.D. for triplicate samples.
FIG. 19 illustrates that YC137 remains toxic to normal cells (MCF10A). […] Such compounds would not be expected to be effective therapies due to likely side effects on normal tissues. If compounds were only toxic to rounded cells, that would be acceptable, since normal tissues are attached and not rounded.
as §5

[9] = system: MCF10A cells stably expressing Bcl-2 (10A-Bcl2); assay: Cell viability assay (XTT), 10A-Bcl2 cells; type: cell-based
Description: Viability was measured with XTT and each point represents the mean+/−S.D. for triplicate samples.

[10] = system: MCF10A cells stably expressing Bcl-xL; assay: Cell viability assay (XTT), MCF10A cells expressing Bcl-xL; type: cell-based, human
Description: as §8

breast tumor cell lines = assay: Cell viability assay (XTT), breast tumor cell lines; type: cell-based, human; settings: tumor cell lines with reduced Bik; up to very high doses, 5 μM LA; listed as LA
Description: as §3
as §5, with “Conversely, forced expression of Bik inhibits systemic breast tumor growth (Zou et al., Cancer Res., 62:8-12 (2002)).” left out

Bik protein [11] = assay: Immunoblot of Bik protein in 11 human breast tumor cell lines; type: cell-based; settings: +MG132 5 μM, 24 h; compared with MCF10A
Description: as §2, §4

[12] = system: tubulin microtentacles of MDA-436 cells; assay: DIC imaging of tubulin microtentacles in detached breast tumor cells; type: cell-based; settings: tetracaine 100 μM
Description: (§9) FIG. 23 illustrates methods used to image circulating tumor cells and microtentacles. Surgically-isolated blood vessels from mice are sutured to the ends of glass micropipettes to allow solution flow through the vessels. After endothelial labeling with Fluo-4 (green), MDA-436 breast tumor cells, stained with QDot-655 (red), were injected and allowed to circulate through the vessel. […] In the right panel the effects of microtentacle inhibitors are imaged with DIC microscopy. Detachment of vimentin-expressing breast tumor cell lines, like MDA-231 and MDA-436 (pictured, FIG. 23 D), stimulates the formation of rapidly-moving tubulin microtentacles (Whipple et al., “Vimentin filaments support extension of tubulin-based microtentacles in detached breast tumor cells”, Cancer Research, (2008), (under revision)). We added the kinesin inhibitor, tetracaine (100 μM) (Miyamoto et al., Biophys. J., 78:940-949 (2000)) and collected DIC images every 30 seconds (Yoon et al., “Microtentacles in detached breast tumor cells require kinesin motor activity”, manuscript in preparation (2008)). After approximately 10 minutes, tubulin microtentacles collapse dramatically (FIG. 23 E). This concentration of drug is non-toxic to these cells, even after 24 hours.

MDA-436 cells = assay: Toxicity of microtentacle inhibitors to breast tumor cells; type: cell-based; settings: 100 μM, even after 24 hours
Description: as §9

[13] = system: Bax- and Bak-deficient MEFs (DKO); settings: cited from earlier work
[14] = LA 5 μM, TRAIL 1 μg/mL, CHX 30 μg/mL, DOX 3 μg/mL
[15] = LA 24 h, versus parental MCF10A

C[C@@H]1C[C@@H]([C@H](O)CC2CC(=O)NC(=O)C2)C(=O)[C@@H](C)C1 [Cycloheximide]
Bik protein (Western blotting) (Bik protein [1]; [14]): do not increase Bik levels
Bik protein (Western blotting) (Bik protein [1]; LA 5 μM, TRAIL 1 μg/mL, CHX 30 μg/mL, DOX 3 μg/mL, listed as cycloheximide): did not induce significant expression of Bik; also recorded: did not increase Bik protein
cell death (MCF10A cells [2]): causes cell death comparable to LA
apoptosis as assessed by PARP cleavage (MCF10A cells [2]): does induce apoptosis

COc1cccc2c1C(=O)c1c(O)c3c(c(O)c1C2=O)C[C@@](O)(C(=O)CO)C[C@@H]3O[C@H]1C[C@H](N)[C@H](O)[C@H](C)O1 [Doxorubicin]
Bik protein (Western blotting) (Bik protein [1]; [14]): did not induce significant expression of Bik; also recorded: do not increase Bik levels; also recorded: did not increase Bik protein
cell death (MCF10A cells [2]): causes cell death comparable to LA
apoptosis as assessed by PARP cleavage (MCF10A cells [2]): does induce apoptosis

C/C1=C/C(=O)O[C@@H]2C[C@@H](CC[C@H](C)/C=C\C=C\CC1)O[C@@](O)([C@@H]1CSC(=O)N1)C2 [Latrunculin-A]
Bik protein (Western blotting) (Bik protein [1]; [14]): increases; also recorded: did increase Bik significantly
Bik protein (Western blotting) (Bik protein [3]): dramatic increases in Bik protein
Bik protein (Western blotting) (Bik protein [4]): dramatic increases in Bik protein
BCRP protein (Western blotting) (BCRP protein [5]): increases BCRP protein
BCRP protein (Western blotting) (BCRP protein [6]): increases BCRP protein
BCRP protein (Western blotting) (BCRP protein [7]): not
LA concentration at which cell death is maximal (MCF10A cells [8]): 5 µM
cell viability (XTT) (MCF10A cells [8]; LA 24 h, doses as low as 2.5 μM): drops significantly
resistance to apoptosis induced by cell rounding (XTT) [9, 15]: significantly resistant
tolerated doses of LA ([9]; cell rounding): ≤ 20 µM
resistance to apoptosis induced by cell rounding (XTT) [10, 15]: significantly resistant
cells remaining viable (XTT) ([10]; LA as high as 20 μM, 24 h): ~60%
resistance to LA-induced apoptosis (XTT viability) (breast tumor cell lines): highly resistant to LA-induced apoptosis; also recorded: significant resistance to apoptosis

CC(C)C[C@@H](C=O)NC(=O)[C@H](CC(C)C)NC(=O)[C@H](CC(C)C)NC(=O)OCc1ccccc1 [MG132] (Cbz-Leu-Leu-Leu-aldehyde)
Bik protein (Western blotting) (Bik protein [1]; MG132 5 μM): strong induction of Bik protein; also recorded: strongly upregulated; also recorded: strongly increased
Bik protein (immunoblot) (Bik protein [11]): significantly lower levels of Bik protein; also recorded: remained low

COC(=O)N[C@@H](CCSC)C(=O)Oc1ccc(Nc2nc3c(s2)C(=O)c2ccccc2C3=O)cc1 [YC-137]
toxicity to attached and rounded cells (MCF10A cells [8]): toxic to both attached and rounded MCF10A cells
viability (XTT) (MCF10A cells [8]): lose viability
cell death on combining with cell rounding (MCF10A cells [8]; YC-137 with LA 2.5 μM, 24 h): increases cell death
decrease in cell viability (XTT) compared to YC-137 alone ([9]; 1 μg/ml YC-137 combined with 2.5 μM LA): greater than 2 fold
cell viability (XTT) compared to YC-137 alone ([9]; YC-137 1 μg/ml or 2.5 μg/ml with LA 2.5 μM, 24 h, P<0.05): significant decrease in cell viability
doses at which YC-137 causes toxicity on its own ([9]; YC-137 alone): higher than 1 μM
effect on rounded versus attached cells ([9]; YC-137 at lower levels): affects rounded cells more than attached cells
cell death on combining with cell rounding ([9]; YC-137 with LA 2.5 μM, 24 h): increases cell death

CCCCNc1ccc(C(=O)OCCN(C)C)cc1 [tetracaine]
time to collapse of tubulin microtentacles [12]: approximately 10 minutes
toxicity to the cells (MDA-436 cells): non-toxic

BH3I-1
toxicity against cells that lack Bax and Bak [13]: toxic against cells that lack Bax and Bak

B1: TRAIL: apoptotic stimulus (protein, UniProt P50591 1-281, looked up)
Tumor necrosis factor ligand …: MAMMEVQGGPSLGQTCVLIVIFTVLLQSLCVAVTYVYFTNELKQMQDKYSKSGIACFLKEDDSYWDPNDEESMNSPCWQVKWQLRQLVRKMILRTSEETISTVQEKQQNISPLVRERGPQRVAAHITGTRGRSNTLSSPNSKNEKALGRKINSWESSRSGHSFLSNLHLRNGELVIHEKGFYYIYSQTYFRFQEEIKENTKNDKQMVQYIYKYTSYPDPILLMKSARNSCWSKDAEYGLYSIYQGGIFELKENDRIFVSVTNEHLIDMDHEASFFGAFLVG
Bik protein (Western blotting) (Bik protein [1]; [14]): did not induce significant expression of Bik; also recorded: do not increase Bik levels; also recorded: did not increase Bik protein
cell death (MCF10A cells [2]): causes cell death comparable to LA
apoptosis as assessed by PARP cleavage (MCF10A cells [2]): does induce apoptosis
